From patent US20100196275A1, “Methods and products for neutralizing the harmful effects of combustion products” (priority 2006, published 2010)
“Also recorded” adds a separate entry of the source.

Legend:
[1] = tested on: nucleotide excision repair (NER); settings: previously found, earlier publications; cited from earlier work
[2] = tested on: nucleotide excision repair (NER); assay: Host cell reactivation (HCR) assay; assay type: cell-based, human; settings: NHLF treated with Acr for 1 h, BPDE-modified luciferase plasmid
Procedure: (§1) Determination of the Effect of Acr Treatment on DNA Repair. Host cell reactivation (HCR) and in vitro DNA repair synthesis assays were performed as previously described to determine the effects of Acr treatment on DNA repair in human cells (Feng, Z., Hu, W., & Tang, M.-s. (2004) Proc. Nat. Acad. Sci. 101, 8598-8602; Feng, Z., Hu, W., Marnett, L., & Tang, M.-s. Mutat. Res. in press).

[3] = tested on: nucleotide excision repair (NER); assay: In vitro DNA damage-specific repair synthesis assay; assay type: biochemical, human
Procedure: as §1

supF gene = assay: supF shuttle vector pSP189 mutation assay in NHLF; assay type: cell-based, human; set-up: dose or concentration left out as unconfirmed; settings: pSP189 modified with Acr, replicated in NHLF
Procedure: Determination of Mutations Induced by Acr-DNA Adducts. The methods used for mutation detection and for mutational spectrum determination were the same as previously described (Feng, Z., Hu, W., Amin, S., & Tang, M.-s. (2003) Biochemistry 42, 7848-7854). Briefly, shuttle vector pSP189 plasmid DNA was modified with different concentrations of Acr, and transfected into NHLF for replication. Plasmids were recovered 72 h after transfection, and replicated plasmids were then transformed into MB7070 E. coli indicator cells. The supF gene in plasmids isolated from mutant white colonies were then sequenced.

[4] = rats; cited from earlier work

Compound: CCCCCC(O)/C=C/C=O (stereo not drawn) [4-HNE]
- effect on cellular NER capacity [1]: greatly reduce cellular nucleotide excision repair (NER) capacity

Compound: C=CC=O [Acr, Acrolein]
- effect on repair of BPDE-DNA adducts (NER capacity) [2]: greatly inhibit NER for BPDE-induced DNA damage
- inhibitory effect, cell lysates directly treated versus whole cells treated ([3]; NHLF): much more pronounced in cell lysates directly treated with Acr than whole cells treated with Acr
- effect on repair of BPDE-DNA adducts (NER capacity) ([3]; NHLF cell extracts, BPDE-modified pUC18): greatly inhibit NER for BPDE-induced DNA damage
- G to T transversions among base substitution mutants sequenced (supF gene): 28 out of 55
- mutation frequency (supF gene): 120×10^−4
- share of G to T transversions among base substitutions (supF gene): more than 50%
- bladder tumour occurrence [4]: greatly enhances urinary bladder papilloma occurrence in rats; also recorded: cause bladder cancer in rats

Compound: O=CCC=O [MDA]
- effect on cellular NER capacity [1]: greatly reduce cellular nucleotide excision repair (NER) capacity
